Test results from PubChem BioAssay AID1963840 (Molecular Pharmacology Branch, DTP, NCI, 2024).

System: 695427-040-R-J1-PDC complex spheroid viability
Assay: Anticancer human tumor 695427-040-R-J1-PDC patient-derived colon adenocarcinoma cell line growth inhibition [POLQ]
Conditions: for IC50: curve of first compound; for viability, T/C: stronger effect = lower value
Experimental: Multicellular complex tumor spheroid response to Polymerase (POL) inhibitors (novobiocin, ART-558, RP6685) in combination with a variety of drugs and investigational agents in selected tumor cell lines
The POL inhibitors (novobiocin, ART-558, and RP6685) were evaluated both individually and in combination with standard of care and investigational anticancer small molecules within a complex spheroid model of solid tumors. . Complex spheroids include a stromal component modeled by human endothelial cells (HUVEC) and fibroblasts modeled by human mesenchymal stem cells (MSCs). The concentration ranges selected for each drug and investigational agent were based upon clinically achievable concentrations if the clinical Cmax of the agent was known.
Compounds. The drugs and investigational agents: novobiocin (NSC847541), ART-558 (NSC835418), RP-6685 (NSC848927), peposertib (NSC802822), ceralasertib (NSC780249), elimusertib (NSC800525), camonsertib (NSC841442), AZD-1390 (NSC803789), olaparib (NSC753686), talazoparib (NSC767125), rucaparib (NSC756644), sotorasib (NSC818433), MRTX-1133 (NSC836407), SN-38 (NSC673596), topotecan (NSC609699), epotoside (NSC141540), doxorubicin (NSC123127), gemcitabine (NSC613327), 5-fluorouracil (NSC19893), paclitaxel (NSC125973), vemurafenib (NSC761431), MSA-2 (NSC828583), SN-011 (NSC837082), adavosertib (NSC754352), prexasertib (NSC758257), carboplatin (NSC241240) and oxaliplatin (NSC266046), were obtained from the National Cancer Institute (NCI) Developmental Therapeutics Program Chemical Repository (21). The FDA-approved anticancer drug set is available from the Developmental Therapeutics Program at https://dtp.cancer.gov/organization/dscb/obtaining/. […] The stock solutions were prepared in dimethyl sulfoxide (DMSO, Sigma-Aldrich, St. Louis, MO, cat. D2650), except for the platinum compounds which were prepared in saline (Quality Biological, Gaithersburg, MD, cat. 114-055-101), at 800-fold the tested concentration and stored at -70 degrees C prior to their use. All drugs and investigational agents were tested over a range starting from a high concentration at or near the clinical Cmax and decreasing in half-log increments. If the clinical Cmax for an agent had not been determined, the highest concentration tested was 10 microM, except for SN-38, which was tested at a high concentration of 1 microM.
Cell Culture. All cells were maintained in an incubator at 37 degrees C and 5% CO2 with 95% humidity. The PDC lines were cultured according to standard operating procedures established by the NCI PDMR (https://pdmr.cancer.gov). Table 3 of the manuscript, lists the cell lines along with the number of the three cell types plated to form the mct-spheroids and media for tumor cell growth. After thawing, all PDC lines, except 997537-175-T-J1-PDC and 415267-285-R-J2-PDC, were cultured in Matrigel-coated flasks prepared with a working solution of 1X Ham's F-12 nutrient mix, without supplementation (Thermo Fisher Scientific, cat. 11765054), 100 U/mL penicillin-streptomycin (Thermo Fisher Scientific, cat. 15140122), and 2.5% Matrigel (Corning Inc., Corning, NY, cat. 354248) for the first three passages. The two PDC lines 997537-175-T-J1-PDC and 415267-285-R-J2-PDC were cultured on uncoated flasks. The 857933-349-R-J2-PDC line was cultured in 6C/Colon 1B media containing advanced DMEM/F-12 (Thermo Fisher Scientific, cat. 12634028), 10 mM HEPES (Thermo Fisher Scientific, cat. 15630080), 1X GlutaMAX supplement (Thermo Fisher Scientific, cat. 35050061), 0.1 mg/mL primocin (InvivoGen, San Diego, CA, cat. ant-pm-2), 10% defined fetal bovine serum, heat inactivated (HyClone Laboratories Inc., Logan, UT, cat. SH30070.03HI), 50% L-WRN conditioned media (ATCC, cat. CRL-3276), 1.25 mM N-Acetyl-L-cysteine (Sigma-Aldrich, cat. A9165), 10 mM nicotinamide (Sigma-Aldrich, cat. N0636), 1X B-27 supplement (Thermo Fisher Scientific, cat. 17504044), 1X N-2 supplement (Thermo Fisher Scientific, cat. […]

[1] = second compound 0.0316 µM, first compound 0.00316 µM
[2] = second compound 0.0316 µM, first compound 0.01 µM
[3] = second compound 0.0316 µM, first compound 0.0316 µM
[4] = second compound 0.0316 µM, first compound 0.1 µM
[5] = second compound 0.0316 µM, first compound 0.316 µM
[6] = second compound 0.0316 µM, first compound 1 µM
[7] = second compound 0.1 µM, first compound 0.00316 µM
[8] = second compound 0.1 µM, first compound 0.01 µM
[9] = second compound 0.1 µM, first compound 0.0316 µM
[10] = second compound 0.1 µM, first compound 0.1 µM
[11] = second compound 0.1 µM, first compound 0.316 µM
[12] = second compound 0.1 µM, first compound 1 µM
[13] = second compound 0.316 µM, first compound 0.00316 µM
[14] = second compound 0.316 µM, first compound 0.01 µM
[15] = second compound 0.316 µM, first compound 0.0316 µM
[16] = second compound 0.316 µM, first compound 0.1 µM
[17] = second compound 0.316 µM, first compound 0.316 µM
[18] = second compound 0.316 µM, first compound 1 µM
[19] = second compound 1 µM, first compound 0.00316 µM
[20] = second compound 1 µM, first compound 0.01 µM
[21] = second compound 1 µM, first compound 0.0316 µM
[22] = second compound 1 µM, first compound 0.1 µM
[23] = second compound 1 µM, first compound 0.316 µM
[24] = second compound 1 µM, first compound 1 µM
[25] = second compound 3.16 µM, first compound 0.00316 µM
[26] = second compound 3.16 µM, first compound 0.01 µM
[27] = second compound 3.16 µM, first compound 0.0316 µM
[28] = second compound 3.16 µM, first compound 0.1 µM
[29] = second compound 3.16 µM, first compound 0.316 µM
[30] = second compound 3.16 µM, first compound 1 µM
[31] = second compound 10 µM, first compound 0.00316 µM
[32] = second compound 10 µM, first compound 0.01 µM
[33] = second compound 10 µM, first compound 0.0316 µM
[34] = second compound 10 µM, first compound 0.1 µM
[35] = second compound 10 µM, first compound 0.316 µM
[36] = second compound 10 µM, first compound 1 µM
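Note: spheroids exposed to compounds for seven days.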
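Throughout, for viability, T/C: 100% = DMSO vehicle control viability.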

C=CCn1c(=O)c2cnc(Nc3ccc(N4CCN(C)CC4)cc3)nc2n1-c1cccc(C(C)(C)O)n1 + Cc1cccc(N(C)C(=O)C2C(O)CCN2c2nc(C)cc(C(F)(F)F)c2C#N)c1
IC50 (second compound 0.0316 µM): > 1000 nM | IC50 (second compound 0.1 µM): > 1000 nM | IC50 (second compound 0.316 µM): > 1000 nM | IC50 (second compound 1 µM): > 1000 nM | IC50 (second compound 3.16 µM): > 1000 nM | IC50 (second compound 10 µM): > 1000 nM | viability, T/C [1]: 100% | viability, T/C [2]: 99.4% | viability, T/C [3]: 101% | viability, T/C [4]: 92.6% | viability, T/C [5]: 94.3% | viability, T/C [6]: 83.6% | viability, T/C [7]: 115% | viability, T/C [8]: 108% | viability, T/C [9]: 93.2% | viability, T/C [10]: 103% | viability, T/C [11]: 93.4% | viability, T/C [12]: 69.5% | viability, T/C [13]: 105% | viability, T/C [14]: 121% | viability, T/C [15]: 95.5% | viability, T/C [16]: 92.5% | viability, T/C [17]: 107% | viability, T/C [18]: 90.1% | viability, T/C [19]: 109% | viability, T/C [20]: 95.9% | viability, T/C [21]: 102% | viability, T/C [22]: 100% | viability, T/C [23]: 98.1% | viability, T/C [24]: 64.2% | viability, T/C [25]: 91.8% | viability, T/C [26]: 90.8% | viability, T/C [27]: 88.9% | viability, T/C [28]: 89.3% | viability, T/C [29]: 91.4% | viability, T/C [30]: 69.5% | viability, T/C [31]: 93.9% | viability, T/C [32]: 89.3% | viability, T/C [33]: 87.7% | viability, T/C [34]: 92.7% | viability, T/C [35]: 91.4% | viability, T/C [36]: 67.9%

COc1ccc([C@@H](O)c2cc(-c3ncnc4cc(N5CCOCC5)ccc34)c(F)cc2Cl)nn1 + Cc1cccc(N(C)C(=O)C2C(O)CCN2c2nc(C)cc(C(F)(F)F)c2C#N)c1
IC50 (second compound 0.0316 µM): > 10000 nM | IC50 (second compound 0.1 µM): > 10000 nM | IC50 (second compound 0.316 µM): > 10000 nM | IC50 (second compound 1 µM): > 10000 nM | IC50 (second compound 3.16 µM): 9230 nM | IC50 (second compound 10 µM): > 10000 nM | viability, T/C [3]: 98.6% | viability, T/C [4]: 94.8% | viability, T/C [5]: 101% | viability, T/C [6]: 99% | viability, T/C (second compound 0.0316 µM, first compound 3.16 µM): 77.5% | viability, T/C (second compound 0.0316 µM, first compound 10 µM): 57.6% | viability, T/C [9]: 103% | viability, T/C [10]: 103% | viability, T/C [11]: 97.4% | viability, T/C [12]: 91.8% | viability, T/C (second compound 0.1 µM, first compound 3.16 µM): 85.2% | viability, T/C (second compound 0.1 µM, first compound 10 µM): 57.3% | viability, T/C [15]: 109% | viability, T/C [16]: 104% | viability, T/C [17]: 103% | viability, T/C [18]: 92.7% | viability, T/C (second compound 0.316 µM, first compound 3.16 µM): 78.5% | viability, T/C (second compound 0.316 µM, first compound 10 µM): 53.6% | viability, T/C [21]: 100% | viability, T/C [22]: 93.8% | viability, T/C [23]: 94% | viability, T/C [24]: 92.1% | viability, T/C (second compound 1 µM, first compound 3.16 µM): 84.1% | viability, T/C (second compound 1 µM, first compound 10 µM): 52.3% | viability, T/C [27]: 92% | viability, T/C [28]: 101% | viability, T/C [29]: 95.9% | viability, T/C [30]: 87.4% | viability, T/C (second compound 3.16 µM, first compound 3.16 µM): 74.5% | viability, T/C (second compound 3.16 µM, first compound 10 µM): 48.1% | viability, T/C [33]: 97.2% | viability, T/C [34]: 79.7% | viability, T/C [35]: 83.8% | viability, T/C [36]: 78.9% | viability, T/C (second compound 10 µM, first compound 3.16 µM): 71.6% | viability, T/C (second compound 10 µM, first compound 10 µM): 51%

COc1cccc(OCCCN)c1-c1cc(Nc2cnc(C#N)cn2)n[nH]1 + Cc1cccc(N(C)C(=O)C2C(O)CCN2c2nc(C)cc(C(F)(F)F)c2C#N)c1
IC50 (second compound 0.0316 µM): > 1000 nM | IC50 (second compound 0.1 µM): > 1000 nM | IC50 (second compound 0.316 µM): > 1000 nM | IC50 (second compound 1 µM): > 1000 nM | IC50 (second compound 3.16 µM): > 1000 nM | IC50 (second compound 10 µM): 295 nM | viability, T/C [1]: 95.4% | viability, T/C [2]: 107% | viability, T/C [3]: 96% | viability, T/C [4]: 82.5% | viability, T/C [5]: 70.5% | viability, T/C [6]: 51% | viability, T/C [7]: 109% | viability, T/C [8]: 95.7% | viability, T/C [9]: 88.3% | viability, T/C [10]: 80.1% | viability, T/C [11]: 71.3% | viability, T/C [12]: 48.3% | viability, T/C [13]: 105% | viability, T/C [14]: 97.5% | viability, T/C [15]: 87% | viability, T/C [16]: 77% | viability, T/C [17]: 67.8% | viability, T/C [18]: 52.5% | viability, T/C [19]: 105% | viability, T/C [20]: 95.3% | viability, T/C [21]: 91.6% | viability, T/C [22]: 75% | viability, T/C [23]: 70.4% | viability, T/C [24]: 51.8% | viability, T/C [25]: 100% | viability, T/C [26]: 87.8% | viability, T/C [27]: 86.5% | viability, T/C [28]: 82% | viability, T/C [29]: 69.7% | viability, T/C [30]: 55.3% | viability, T/C [31]: 85.9% | viability, T/C [32]: 89.1% | viability, T/C [33]: 75.8% | viability, T/C [34]: 63.7% | viability, T/C [35]: 48.8% | viability, T/C [36]: 43.5%
